Experimental data from paper PMC9780703, “Unconventional interactions of the TRPV4 ion channel with beta-adrenergic receptor ligands” (Life Science Alliance, 2022).
Where a name gives a salt, the structure may show the parent alone. Read-outs that look alike come from different tables or passages of the source.

Columns and labels:
Format in all cases: cell-based
TRPV4 [1] = target: T1, TRPV4 (Homo sapiens, UniProt Q9HBA0); assay: outside-out patch clamp of HEK293 cells expressing hTRPV4, % inhibition of GSK-activated current at […]
T1 construct: full-length wild type, transiently transfected HEK293, outside-out patches
T1 sequence (Q9HBA0 whole entry): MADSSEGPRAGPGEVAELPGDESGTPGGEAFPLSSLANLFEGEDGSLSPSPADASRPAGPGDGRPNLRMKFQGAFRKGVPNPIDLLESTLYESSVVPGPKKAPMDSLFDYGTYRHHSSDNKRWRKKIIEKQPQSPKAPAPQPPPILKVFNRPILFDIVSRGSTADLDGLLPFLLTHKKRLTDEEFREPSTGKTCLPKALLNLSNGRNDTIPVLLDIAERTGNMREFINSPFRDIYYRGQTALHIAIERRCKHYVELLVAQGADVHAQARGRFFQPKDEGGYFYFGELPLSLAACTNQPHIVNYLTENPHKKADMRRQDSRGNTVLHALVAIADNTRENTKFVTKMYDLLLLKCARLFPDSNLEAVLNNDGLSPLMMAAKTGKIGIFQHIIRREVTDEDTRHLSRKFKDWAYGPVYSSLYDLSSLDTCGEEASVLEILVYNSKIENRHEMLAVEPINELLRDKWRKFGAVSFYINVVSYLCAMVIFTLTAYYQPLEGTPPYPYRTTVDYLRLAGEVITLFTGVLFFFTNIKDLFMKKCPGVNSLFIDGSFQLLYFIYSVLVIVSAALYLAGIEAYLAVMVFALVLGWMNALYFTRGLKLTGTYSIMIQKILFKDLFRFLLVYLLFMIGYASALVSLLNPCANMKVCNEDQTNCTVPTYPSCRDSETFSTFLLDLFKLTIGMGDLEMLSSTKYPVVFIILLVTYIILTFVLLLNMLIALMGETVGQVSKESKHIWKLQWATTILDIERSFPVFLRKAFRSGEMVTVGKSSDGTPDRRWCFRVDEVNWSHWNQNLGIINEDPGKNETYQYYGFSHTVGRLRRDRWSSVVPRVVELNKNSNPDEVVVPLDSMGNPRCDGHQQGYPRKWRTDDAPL

TRPV4 [2] = target: T1, TRPV4; assay: as above; remark: listed apart in the source
TRPV4 [3] = target: T1, TRPV4; assay: outside-out patch clamp of HEK293 cells expressing hTRPV4, inhibition of GSK-activated currents, dose-response (apparent KD from Hill fit)
TRPV4 [4] = target: T1, TRPV4; assay: outside-out patch clamp of HEK293 cells expressing hTRPV4, % inhibition of GSK-activated current at […]; remark: listed apart in the source
TRPV4 [5] = target: T1, TRPV4; assay: outside-out patch clamp of HEK293 cells expressing hTRPV4, dose-response, single-channel recordings and site-directed mutagenesis (apparent KD from Hill fit)
TRPV4 [6] = target: T1, TRPV4; assay: outside-out patch clamp of HEK293 cells expressing hTRPV4, % inhibition of GSK-activated current at […]; remark: listed apart in the source
TRPV4 [7] = target: T1, TRPV4; assay: outside-out patch clamp of HEK293 cells expressing hTRPV4, activation dose-response (KD from Hill fit)
TRPV4 [8] = target: T1, TRPV4; assay: outside-out patch clamp of HEK293 cells expressing hTRPV4, % inhibition of GSK-activated current at […]; remark: listed apart in the source

## CC(C)NCC(O)c1ccc(O)c(O)c1 (centres unmarked) [isoprenaline, 1-[3′,4′-dihydroxyphenyl]-2-isopropylaminoethanol hydrochloride]
TRPV4 [1]
  inhibition at 500 µM: 51.6%

## CC(C)NCC(O)c1cc(O)cc(O)c1 (stereo not drawn) [metaproterenol, α-[(isopropylamino)methyl]-3,5-dihydroxybenzyl alcohol hemisulfate salt]
TRPV4 [2]
  inhibition at 500 µM: 51.7%

## Cc1ccc(OC[C@H](O)[C@@H](C)NC(C)C)c2c1CCC2 (relative stereo) [ICI, [2R,3R]-rel-3-isopropylamino-1-[7-methylindan-4-yloxy]-butan-2-ol hydrochloride]
TRPV4 [3]
  Kd: 3.9 µM

## CC(C)(C)NCC(O)c1cc(O)cc(O)c1 (centres unmarked) [terbutaline, 5-[2-[(1,1-dimethylethyl)amino]-1-hydroxyethyl]-1,3-benzenediol hemisulfate salt]
TRPV4 [4]
  inhibition at 500 µM: 54.4%

## CC(C)(C)NCC(O)c1ccc(O)c(CO)c1 (racemic) [salbutamol, α1-[(tert-butylamino)methyl]-4-hydroxy-1,3-benzenedimethanol hemisulfate salt]
TRPV4 [5]
  Kd: 81.3 µM

## CC(C)(C)NC[C@H](O)c1ccc(O)c(CO)c1 [levalbuterol]
TRPV4 [6]
  inhibition at 500 µM: 42.6%

## CC(C)C[C@H](NC(=O)c1cc2ccccc2s1)C(=O)N1CCN(C(=O)[C@H](CO)NS(=O)(=O)c2ccc(Cl)cc2Cl)CC1 [GSK, GSK1016790A]
TRPV4 [7]
  Kd: 0.101 µM

## CC(C)(C)NCC(O)c1cc(Cl)c(N)c(Cl)c1 (stereo not drawn) [clenbuterol, 4-amino-α-[t-butylaminomethyl]-3,5-dichlorobenzyl alcohol hydrochloride]
TRPV4 [8]
  inhibition at 500 µM: 71.7%
